Data published in publication PMC6934227, “GPR101 mediates the pro-resolving actions of RvD5n-3 DPA in arthritis and infections” (The Journal of Clinical Investigation, 2019).

Assays:
Format in all cases: cell-based
GPR101 = target: T1, GPR101 (Homo sapiens, UniProt Q96P66); test: tritiated radioligand saturation binding on GPR101-overexpressing CHO cells (plus homologous competition, IC50 […])
T1 construct: GPR101-overexpressing CHO cells
T1 sequence (Q96P66 1-508): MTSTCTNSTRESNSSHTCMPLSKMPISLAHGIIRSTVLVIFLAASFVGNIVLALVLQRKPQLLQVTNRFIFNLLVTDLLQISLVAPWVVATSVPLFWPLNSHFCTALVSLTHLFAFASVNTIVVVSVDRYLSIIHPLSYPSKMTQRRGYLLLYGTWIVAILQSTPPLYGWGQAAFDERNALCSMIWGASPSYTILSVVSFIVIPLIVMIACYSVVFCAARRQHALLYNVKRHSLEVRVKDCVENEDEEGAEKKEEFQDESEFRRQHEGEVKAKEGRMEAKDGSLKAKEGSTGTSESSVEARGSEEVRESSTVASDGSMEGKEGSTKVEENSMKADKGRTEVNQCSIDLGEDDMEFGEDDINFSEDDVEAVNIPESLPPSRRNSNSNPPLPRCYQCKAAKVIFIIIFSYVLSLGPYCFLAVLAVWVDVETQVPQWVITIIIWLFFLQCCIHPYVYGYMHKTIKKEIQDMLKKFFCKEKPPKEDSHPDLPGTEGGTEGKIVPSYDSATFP
Excerpt: These experiments yielded a calculated KD

GPR32 (DRV1) [1] = target: T2, GPR32 (DRV1) (Homo sapiens, UniProt O75388); test: PathHunter β-arrestin recruitment in CHO cells
T2 construct: CHO cells stably expressing human recombinant GPR32 coupled to a β-arrestin reporter system
T2 sequence (O75388 whole entry): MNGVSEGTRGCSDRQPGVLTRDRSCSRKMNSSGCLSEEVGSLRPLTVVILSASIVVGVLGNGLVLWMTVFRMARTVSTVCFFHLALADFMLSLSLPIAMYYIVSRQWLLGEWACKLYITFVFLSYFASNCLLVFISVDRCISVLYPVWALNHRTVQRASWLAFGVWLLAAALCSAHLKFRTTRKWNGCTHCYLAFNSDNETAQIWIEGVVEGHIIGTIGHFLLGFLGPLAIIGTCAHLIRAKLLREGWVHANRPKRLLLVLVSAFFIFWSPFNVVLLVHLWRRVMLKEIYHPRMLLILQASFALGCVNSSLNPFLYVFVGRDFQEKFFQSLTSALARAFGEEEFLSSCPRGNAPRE

GPR32 (DRV1) [2] = target: T2, GPR32 (DRV1); test: PathHunter β-arrestin recruitment in CHO cells (reference agonist)

Row | Kd (GPR101) [nM] | EC50 (GPR32 (DRV1) [1]) [nM] | EC50 (GPR32 (DRV1) [2]) [nM] | Compound
1 | ~6.9 | ~0.014 | – | CC/C=C\C[C@H](O)/C=C/C=C\C/C=C\C=C\[C@@H](O)CCCCCC(=O)O [RvD5n-3 DPA, 7S,17S-dihydroxy-8E,10Z,13Z,15E,19Z-docosapentaenoic acid]
2 | – | – | ~0.0015 | CC/C=C\C[C@H](O)/C=C/C=C\C=C\C=C\[C@@H](O)[C@@H](O)C/C=C\CCC(=O)O [RvD1, 7S,8R,17S-trihydroxy-4Z,9E,11E,13Z,15E,19Z-docosahexaenoic acid]
